Measurements as given in US20250368700A1, “NOVEL PEPTIDE FOR TREATING AN INFECTIOUS DISEASE OR CONDITION” (OMNIX MEDICAL LTD., priority 2022, published 2025).
In brackets after ≈: the same amount, converted by molar mass. Like-named read-outs stand apart in the source and are kept apart here. Where a SMILES comes first, the peptide text is derived from it. Where no end group is shown, it is not given here. [ ]: non-standard residue; d: D form.

Tests used:
[1] = system: Escherichia coli ATCC ® 25922 (Sens.); format: cell-based
From the text: (§1) As bacterial growth progresses, OD625 nm values raised.

[2] = system: Escherichia coli ATCC ® BAA-3048 (MDR); format: cell-based
From the text: as §1

[3] = system: Pseudomonas aeruginosa ATCC ® 27853 (Sens.); format: cell-based
From the text: as §1

[4] = system: Klebsiella pneumoniae ATCC ® BAA-2146 (NDM-1); format: cell-based
From the text: as §1

[5] = system: Pseudomonas aeruginosa ATCC ® BAA-2795 (MDR); format: cell-based
From the text: as §1

[6] = system: Pseudomonas aeruginosa ATCC ® BAA-2797 (MDR); format: cell-based
From the text: as §1

[7] = system: Klebsiella pneumoniae ATCC ® 700603 (Sens.); format: cell-based
From the text: as §1

[8] = system: Escherichia coli ATCC ® BAA-2452 (NDM-1); format: cell-based
From the text: as §1

Proteinase-K (ProtK) = Proteinase-K (ProtK) (Parengyodontium album, UniProt P06873); format: in vitro ADME; settings: 2.5 μg protein, 2 hours at 37° C.
Procedure: Methods: Proteinase-K (ProtK) was used to assess the stability of OMN71 versus native OMN70 and Bovine Serum Albumin (BSA). 2.5 μg of each protein were incubated with increasing concentrations of 2.5 and 20 ng of ProtK as specified, for 2 hours at 37° C. Samples were boiled at 100° C. for five minutes and separated on 16.5% polyacrylamide gel. The gel was then stained with Coomassie Blue and excess dye was removed overnight.
Results: FIGS. 3A and 3B depict a Coomassie Blue stained gel detecting the following: FIG. 3A: Lanes 1, 2 and 3: […] of OMN70 subjected to 0/2.5/20 ng of Proteinase-K (ProtK), respectively. Lanes 4, 5 and 6: […] of OMN71 subjected to 0/2.5/20 ng of ProtK, respectively. FIG. 3B: Lanes 7, 8 and 9: […] of Bovine Serum Albumin (BSA) subjected to 0/2.5/20 ng of ProtK, respectively.

[9] = system: K. pneumoniae strain ATCC® 43816; experiment: Mouse lung infection model induced by K. pneumoniae, lung bacterial burden; format: in vivo; settings: neutropenic CD-1 female mice, 100 mg/kg intranasal two hours post-infection, 24 hours
Procedure: Neutropenic CD-1 female mice were intratracheally inoculated with K. pneumoniae strain ATCC 43816 (75×10^3 CFU/mouse). Two hours post-inoculation, OMN71-treated group was administered by an intranasal injection of 100 mg/kg and the vehicle group was administered with 0.9% saline solution. Bacterial burden in the lungs was evaluated 24 hours post-infection. Control group of untreated mice n=2 (CTRL ▪), vehicle saline treated mice n=3 (vehicle ●), OMN71-treated group at 100 mg/kg n=3 (OMN71 100 mg/kg ▴).
Methods: Female CD-1 mice, weighing between 20-25 g were inoculated with K. pneumoniae bacteria to induce a lung infection. All animals were monitored during the entire period of the study and clinical signs were recorded. Briefly, eight animals were rendered neutropenic by two intraperitoneal injections of cyclophosphamide (Sigma-Aldrich, Italy) at 150 and 100 mg/kg, four and one day before the infection, respectively. […] The mice were anesthetized by IP injection of Ketamine-Xylazine at low dose and intratracheally inoculated with 50 μL of the bacterial suspension (75×10^3 CFU/mouse). Two hours post-infection (T2h), 100 mg/kg OMN71 in a total volume of 50 μl saline (0.9% NaCl) was administered intranasal. […] The mice were monitored during the entire study and scored for clinical signs of infection where no mortality or morbidity were observed.

Hsd:ICR (CD-1) mice = experiment: Safety of intra-nasal (IN) administration in mice (histopathology, mortality); format: in vivo; design: key to histopathological findings grade, Spleen / histopathological findings grade, Lungs / histopathological findings grade, Kidneys / histopathological findings grade, Heart / histopathological findings grade, Liver: Grade 0—The tissue appears normal, without any changes at all; Grade 1—Minimal pathological findings; Grade 2—Mild pathological findings; Grade 3—Moderate pathological findings; Grade 4—Severe pathological findings; settings: 100 mg/kg IN
Procedure: Methods: Adverse effects of OMN71 on mice following intra-Nasal (IN) administration, safety was evaluated by tissue histopathology and mortality. 100 mg/kg of OMN71 in a total volume of 50 μl saline (0.9% NaCl) was administered intranasal (IN) to Hsd:ICR (CD-1) mice (20-25 g) in order to assess the presence any toxic effects. Control mice were administered with saline solution (0.9% NaCl) as vehicle. On the last time-point of each experiment (at T24h), mortality was assessed, the mice were sacrificed by IP injection of Ketamine-Xylazine and spleen, lungs, kidneys, heart and liver were collected for histopathology.
Slides of liver, heart, kidneys, lungs, and spleen were stained with Hematoxylin & Eosin (H&E) and were sent for evaluation. The H&E-stained slides were examined and pictures were taken using microscope equipped with a camera at objective magnification of ×4 and ×10.

[10] = system: K. pneumoniae strain ATCC® 43816; format: cell-based

Sequence of Proteinase-K (ProtK) (P06873 106-384, species assumed): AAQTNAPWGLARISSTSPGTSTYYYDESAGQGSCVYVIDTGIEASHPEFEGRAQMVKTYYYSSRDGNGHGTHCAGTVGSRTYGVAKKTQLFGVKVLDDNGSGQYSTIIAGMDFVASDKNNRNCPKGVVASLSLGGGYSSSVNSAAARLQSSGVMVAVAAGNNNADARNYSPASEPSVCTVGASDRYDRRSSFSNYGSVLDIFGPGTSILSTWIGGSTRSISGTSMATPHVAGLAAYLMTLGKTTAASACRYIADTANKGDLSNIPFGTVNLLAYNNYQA

## CC(C)C[C@@H](NC(=O)[C@H](N)CC(N)=O)C(=O)N[C@H](CC(C)C)C(=O)N[C@H](CO)C(=O)N[C@H](CCCCN)C(=O)N[C@H](CC(C)C)C(=O)N[C@H](CCCNC(=N)N)C(=O)N[C@H](CCCCN)C(=O)NCC(=O)N[C@H](C)C(=O)N[C@@H](C(=O)N[C@H](CCCCN)C(=O)N[C@H](C)C(=O)N[C@H](Cc1ccccc1)C(=O)N[C@H](CC(N)=O)C(=O)N[C@H](CCCCN)C(=O)N[C@H](CC(C)C)C(=O)N[C@H](C)C(=O)N[C@H](CC(N)=O)C(=O)N[C@H](CC(C)C)C(=O)N[C@H](Cc1ccccc1)C(N)=O)[C@H](C)O [OMN72]
[1]
  MIC values: 32 µg/mL (≈ 13.6 µM)
[2]
  MIC values: 32 µg/mL (≈ 13.6 µM)
[3]
  MIC values: 64 µg/mL (≈ 27.3 µM)
[4]
  MIC values: 32 µg/mL (≈ 13.6 µM)
[5]
  MIC values: 16 µg/mL (≈ 6.82 µM)
[6]
  MIC values: 64 µg/mL (≈ 27.3 µM)
[7]
  MIC values: 16 µg/mL (≈ 6.82 µM)
[8]
  MIC values: 32 µg/mL (≈ 13.6 µM)

## Bovine Serum Albumin [BSA]
Proteinase-K (ProtK); 2.5 ng ProtK
  degradation by ProtK (gel band): partially degrade
Proteinase-K (ProtK); 20 ng ProtK
  degradation by ProtK (gel band): completely degrade

## CC(C)C[C@@H](NC(=O)[C@H](N)Cc1ccccc1)C(=O)N[C@H](CC(N)=O)C(=O)N[C@H](C)C(=O)N[C@H](CC(C)C)C(=O)N[C@H](CCCCN)C(=O)N[C@H](CC(N)=O)C(=O)N[C@H](Cc1ccccc1)C(=O)N[C@H](C)C(=O)N[C@H](CCCCN)C(=O)N[C@@H](C(=O)N[C@H](C)C(=O)NCC(=O)N[C@H](CCCCN)C(=O)N[C@H](CCCNC(=N)N)C(=O)N[C@H](CC(C)C)C(=O)N[C@H](CCCCN)C(=O)N[C@H](CO)C(=O)N[C@H](CC(C)C)C(=O)N[C@H](CC(C)C)C(=O)N[C@H](CC(N)=O)C(N)=O)[C@H](C)O [OMN71] (H-[dF][dL][dN][dA][dL][dK][dN][dF][dA][dK][dT][dA]G[dK][dR][dL][dK][dS][dL][dL][dN]-NH2; N-terminus assumed)
[9]
  bacterial burden reduction compared to the vehicle-treated group: ~1 log CFU/lungs
Hsd:ICR (CD-1) mice; T24 h
  histopathological findings grade, Heart: 0
  histopathological findings grade, Kidneys: 0
  histopathological findings grade, Liver: 0
  histopathological findings grade, Lungs: 0
  histopathological findings grade, Spleen: 0
Hsd:ICR (CD-1) mice; at T24h
  mortality: No mortality
Hsd:ICR (CD-1) mice; monitored for an additional week
  mortality or other adverse effects: no mortality or any other adverse effects
[10]
  MIC: 4 µg/mL (≈ 1.7 µM)
[1]
  MIC values: 4 µg/mL (≈ 1.7 µM)
[2]
  MIC values: 4 µg/mL (≈ 1.7 µM)
[3]
  MIC values: 16 µg/mL (≈ 6.82 µM)
[4]
  MIC values: 16 µg/mL (≈ 6.82 µM)
[5]
  MIC values: 4 µg/mL (≈ 1.7 µM)
[6]
  MIC values: 16 µg/mL (≈ 6.82 µM)
[7]
  MIC values: 8 µg/mL (≈ 3.41 µM)
[8]
  MIC values: 4 µg/mL (≈ 1.7 µM)

## FLNALKNFAKTAGKRLKSLLN-NH2 [OMN70, Cyanophlyctin, reference compound]
[1]
  MIC values: 4 µg/mL
[2]
  MIC values: 16 µg/mL
[3]
  MIC values: 16 µg/mL
[4]
  MIC values: 16 µg/mL
[5]
  MIC values: 8 µg/mL
[6]
  MIC values: 16 µg/mL
[7]
  MIC values: 8 µg/mL
[8]
  MIC values: 8 µg/mL
